Data as given in paper PMC10508830 (Antiviral research, 2023).
Like-named read-outs stand apart in the source and are kept apart here.

Assays:
[1] = biological target: NA of A/Illinois/45/2019 A(H1N1)pdm09 (Influenza A virus, UniProt A0A0X9QTS2); assay type: biochemical; conditions: read-out: Mean IC50 ± SD
[2] = test system: A/Illinois/08/2018 A(H1N1)pdm09; test: microbe, parasite or virus in culture; assay type: cell-based, influenza A(H1N1)pdm09 virus; conditions: Influenza A virus, H1N1, read-out: Mean EC50 ± SD
[3] = test system: A/Louisiana/50/2017 A(H3N2); test: microbe, parasite or virus in culture; assay type: cell-based; conditions: Influenza A virus, H3N2, read-out: Mean EC50 ± SD
[4] = test system: A/bald eagle/Florida/22-006544-004/2022; test: microbe, parasite or virus in culture; assay type: cell-based, influenza A(H5N1) virus; conditions: Influenza A virus, read-out: Mean EC50 ± SD
[5] = test system: A/black vulture/Florida/22-012331-001/2022; test: microbe, parasite or virus in culture; assay type: cell-based, influenza A(H5N1) virus; conditions: Influenza A virus, read-out: Mean EC50 ± SD
[6] = test system: A/fox/Wisconsin/22-014746-030/2022; test: microbe, parasite or virus in culture; assay type: cell-based, influenza A(H5N1) virus; conditions: Influenza A virus, read-out: Mean EC50 ± SD
[7] = test system: A/Illinois/08/2018 A(H1N1)pdm09; assay type: cell-based, influenza A(H1N1)pdm09 virus; conditions: read-out: Mean EC50 ± SD
[8] = biological target: NA of A/bald eagle/Florida/22-006544-004/2022 (Influenza A virus, UniProt Q9Q0U7); assay type: biochemical; conditions: read-out: Mean IC50 ± SD
[9] = biological target: NA of A/turkey/Iowa/22-012098-001/2022 (Influenza A virus, UniProt Q9Q0U7); assay type: biochemical; conditions: read-out: Mean IC50 ± SD
[10] = biological target: NA of A/black vulture/Maryland/22-012407-001/2022 (Influenza A virus (H5N1), UniProt Q9Q0U7); assay type: biochemical; conditions: read-out: Mean IC50 ± SD
[11] = biological target: NA of A/Cooper's hawk/Minnesota/22-012931-001/2022 (Influenza A virus, UniProt Q9Q0U7); assay type: biochemical, influenza A(H5N1) virus; conditions: read-out: Mean IC50 ± SD
[12] = biological target: NA of A/red-shouldered hawk/Minnesota/22-012000-004/2022 (Influenza A virus, UniProt Q9Q0U7); assay type: biochemical; conditions: read-out: Mean IC50 ± SD
[13] = biological target: NA of A/fox/Wisconsin/22-013774-002/2022 (Influenza A virus, UniProt Q9Q0U7); assay type: biochemical; conditions: read-out: Mean IC50 ± SD
[14] = biological target: NA of A/Canada goose/Wyoming/22-011671-001/2022 (Influenza A virus, UniProt Q9Q0U7); assay type: biochemical, influenza A(H5N1) virus; conditions: read-out: Mean IC50 ± SD
[15] = biological target: NA of A/fox/Michigan/22-014536-004/2022 (del50-70) (Influenza A virus, UniProt Q9Q0U7); assay type: biochemical, influenza A(H5N1) virus; conditions: read-out: Mean IC50 ± SD
[16] = biological target: NA of A/black vulture/Florida/22-012333-001/2022 (N/S295, T/N438, mixed population) (Influenza A virus (H5N1), UniProt Q9Q0U7); assay type: biochemical; conditions: read-out: Mean IC50 ± SD

Row | Molecule | IC50 [1] | EC50 [2] | EC50 [3] | EC50 [4] | EC50 [5] | EC50 [6] | EC50 [7] | IC50 [8] | IC50 [9] | IC50 [10] | IC50 [11] | IC50 [12] | IC50 [13] | IC50 [14] | IC50 [15] | IC50 [16]
1 | oseltamivir carboxylate | 0.17 ± 0.03 nM | – | – | – | – | – | – | – | – | – | – | – | – | – | – | –
2 | O=C1c2c(O)c(=O)ccn2N([C@@H]2c3ccccc3SCc3c2ccc(F)c3F)[C@@H]2COCCN12 [Baloxavir, baloxavir acid] | – | 1.65 ± 0.44 nM | 1.04 ± 0.43 nM | 0.41 nM | 0.44 nM | 0.32 nM | 1.12 ± 0.32 nM | – | – | – | – | – | – | – | – | –
3 | peramivir | 0.06 ± 0.01 nM | – | – | – | – | – | – | 0.08 nM | 0.1 nM | 0.1 nM | 0.1 nM | 0.09 nM | 0.09 nM | 0.08 nM | 0.1 nM | 0.55 nM
